Laboratory results reported in patent publication US20180200261A1, “METHODS AND MATERIALS FOR TREATING CANCER” (Mayo Foundation for Medical Education and Research, priority 2015, published 2018).

Key:
HeLa cells = assay: Immunofluorescence of ionizing radiation induced foci (IRIF); type: cell-based; details: 250 nM JQ1, irradiated
Experimental: FIGS. 1A-B. BET inhibitor affects DNA repair efficiency. (A and B) HeLa cells treated with (JQ1) or without (CK) 250 nM JQ1 were irradiated (2 Gy) and probed with the indicated antibodies at different time points.
To visualize ionizing radiation induced foci (IRIF), cells were cultured on coverslips and treated with 5 Gy ionizing radiation (IR) followed by recovery as indicated. Cells were then washed in PBS, incubated in 3% paraformaldehyde for 15 minutes, and permeabilized in 0.5% Triton solution for 5 minutes at room temperature. Samples were blocked with 5% goat serum and then incubated with primary antibodies for 30 minutes. Samples were washed three times and incubated with secondary antibodies for 30 minutes. Cells were then stained with DAPI to visualize nuclear DNA. The coverslips were mounted onto glass slides with anti-fade solution and visualized using a Nikon eclipse 80i fluorescence microscope. The following antibodies were used in immunofluorescence: rH2Ax (Millipore) and Rad51 (GeneTex).
To check the effect of BET inhibitor in the DNA repair pathway, the foci of rH2Ax and RAD51 were examined (FIG. 1). rH2Ax is the marker of damaged DNA. RAD51 is an enzyme involved in homology recombination. Both proteins can form foci at damaged DNA sites.

OVCAR10 cells = assay: PARP inhibitor sensitivity assay (colony formation), OVCAR10; type: cell-based; details: OVCAR10, JQ1 100 nM, OTX015 100 nM, i-BET-762 250 nM together with AZD2281 0-10 μM, 1 to 2 weeks, clones counted
Experimental: FIG. 3. […] OVCAR10 cells were plated in 6 well plates at a density of 500 cells/well. JQ1 (100 nM), OTX015 (100 nM), and i-BET-762 (250 nM) were added together with different concentrations of AZD2281 (0, 0.1, 1, or 10 μM). […] The cells were cultured for 1 to 2 weeks until clones were visible for counting.
Cells were plated in 6 well plates with at a density of 500 cells/well. BET inhibitors were added together with different concentrations of AZD2281 (0, 0.1, 1, or 10 μM), and the cells were cultured for 1 to 2 weeks until the colonies were visible for counting.

Structure (SMILES) | rH2Ax foci (rH2Ax positive cells) after IR (HeLa cells; 24 hours after IR) | RAD51 foci after IR (HeLa cells; different time points) | cell sensitivity to PARP inhibitor (OVCAR10 cells)
Cc1sc2c(c1C)C(c1ccc(Cl)cc1)=N[C@@H](CC(=O)OC(C)(C)C)c1nnc(C)n1-2 [JQ1, (S)-tert-butyl 2-(4-(4-chlorophenyl)-2,3,9-trimethyl-6H-thieno[3,2-f][1,2,4]triazolo[4,3-a][1,4]diazepin-6-yl)acetate] | sustained at high levels | affected RAD51 in a similar manner | affect cell sensitivity to PARP inhibitor
Cc1sc2c(c1C)C(c1ccc(Cl)cc1)=N[C@@H](CC(=O)Nc1ccc(O)cc1)c1nnc(C)n1-2 [OTX015, (6S)-4-(4-chlorophenyl)-N-(4-hydroxyphenyl)-2,3,9-trimethyl-6H-thieno[3,2-f][1,2,4]triazolo[4,3-a][1,4]diazepine-6-acetamide] | – | – | affect cell sensitivity to PARP inhibitor
CCNC(=O)C[C@@H]1N=C(c2ccc(Cl)cc2)c2cc(OC)ccc2-n2c(C)nnc21 [i-BET-762, (S)-2-(6-(4-chlorophenyl)-8-methoxy-1-methyl-4H-benzo[f][1,2,4]triazolo[4,3-a][1,4]diazepin-4-yl)-N-ethylacetamide] | – | – | affect cell sensitivity to PARP inhibitor
